From PubChem BioAssay (NCI)
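All cell lines were grown in 96-well plates and treated with compound for 48 hours. TGI marks complete inhibition of growth.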

Experiments:
Test in all cases: inhibition of tumour cell growth, NCI panel, 48 h
DLD-1 colon = tested on: DLD-1 colon
M19-MEL melanoma = tested on: M19-MEL melanoma
XF 498 CNS = tested on: XF 498 CNS
SNB-78 CNS = tested on: SNB-78 CNS
KM20L2 colon = tested on: KM20L2 colon
DMS 114 small cell lung = tested on: DMS 114 small cell lung
LXFL 529 NSCLC = tested on: LXFL 529 NSCLC
HOP-18 NSCLC = tested on: HOP-18 NSCLC

SMILES: S=C1NCCN1
- TGI (DLD-1 colon): > 100 µM
- TGI (M19-MEL melanoma): > 100 µM
- TGI (XF 498 CNS): > 100 µM
- TGI (SNB-78 CNS): > 100 µM
- TGI (KM20L2 colon): > 100 µM
- TGI (DMS 114 small cell lung): > 100 µM
- TGI (LXFL 529 NSCLC): > 100 µM

SMILES: COc1cc2c(c(OC)c1O)-c1ccc(SC)c(=O)cc1C(NC(C)=O)CC2 (stereo not drawn)
- TGI (DLD-1 colon): > 100 µM
- TGI (M19-MEL melanoma): > 100 µM
- TGI (SNB-78 CNS): > 100 µM
- TGI (KM20L2 colon): 0.0246 µM
- TGI (HOP-18 NSCLC): > 100 µM
- TGI (DMS 114 small cell lung): < 0.0143 µM
- TGI (LXFL 529 NSCLC): > 100 µM

SMILES: O=C(CSC(=S)N1CCCCC1)Nc1nc2c(s1)CCCC2
- TGI (DLD-1 colon): > 100 µM
- TGI (M19-MEL melanoma): > 100 µM
- TGI (XF 498 CNS): 71.3 µM
- TGI (SNB-78 CNS): > 100 µM
- TGI (KM20L2 colon): > 100 µM
- TGI (DMS 114 small cell lung): > 100 µM
- TGI (LXFL 529 NSCLC): > 100 µM

SMILES: Cc1cc(=O)[nH]c(NNC(C#N)c2cccc(O)c2)n1 (stereo not drawn)
- TGI (DLD-1 colon): > 100 µM
- TGI (M19-MEL melanoma): > 100 µM
- TGI (SNB-78 CNS): > 100 µM
- TGI (KM20L2 colon): > 100 µM
- TGI (HOP-18 NSCLC): > 100 µM
- TGI (DMS 114 small cell lung): > 100 µM
- TGI (LXFL 529 NSCLC): > 100 µM

SMILES: O=c1cc(-c2cccc(O)c2)[nH]c2cc3c(cc12)OCO3
- TGI (DLD-1 colon): > 100 µM
- TGI (M19-MEL melanoma): 95.9 µM
- TGI (XF 498 CNS): > 100 µM
- TGI (SNB-78 CNS): 54.2 µM
- TGI (HOP-18 NSCLC): > 100 µM
- TGI (DMS 114 small cell lung): 5.68 µM
- TGI (LXFL 529 NSCLC): > 100 µM

SMILES: Cc1c2n(c(=O)[nH]c1=O)C1OC(CO)C(O2)C1N=[N+]=[N-] (stereo not drawn)
- TGI (DLD-1 colon): > 100 µM
- TGI (M19-MEL melanoma): > 100 µM
- TGI (SNB-78 CNS): > 100 µM
- TGI (KM20L2 colon): > 100 µM
- TGI (DMS 114 small cell lung): > 100 µM
- TGI (LXFL 529 NSCLC): > 100 µM

SMILES: C[n+]1c2ccccc2c(NCC(=O)O)c2ccccc21
- TGI (DLD-1 colon): > 100 µM
- TGI (M19-MEL melanoma): > 100 µM
- TGI (SNB-78 CNS): > 100 µM
- TGI (KM20L2 colon): > 100 µM
- TGI (HOP-18 NSCLC): > 100 µM
- TGI (DMS 114 small cell lung): > 100 µM
- TGI (LXFL 529 NSCLC): > 100 µM
